From patent US20250084040A1, “SUBSTITUTED HETEROCYCLES AS c-MYC TARGETING AGENTS” (Northwestern University, priority 2018, published 2025)

System: NCI 60 cell panel
Test: NCI 60 Cell One-Dose Screen
Type: cell-based, human
Settings: 1.00E−5 Molar
Protocol: General Description. As of early 2007 all compounds submitted to the NCI 60 Cell screen are tested initially at a single high dose (10^-5 M) in the full NCI 60 cell panel. Only compounds which satisfy pre-determined threshold inhibition criteria in a minimum number of cell lines will progress to the full 5-dose assay. The threshold inhibition criteria for progression to the 5-dose screen was selected to efficiently capture compounds with anti-proliferative activity based on careful analysis of historical DTP screening data. The threshold criteria may be updated as additional data becomes available.
Interpretation of One-Dose Data. The One-dose data will be reported as a mean graph of the percent growth of treated cells and will be similar in appearance to mean graphs from the 5-dose assay. The number reported for the One-dose assay is growth relative to the no-drug control, and relative to the time zero number of cells. This allows detection of both growth inhibition (values between 0 and 100) and lethality (values less than 0). This is the same as for the 5-dose assay, described below. For example, a value of 100 means no growth inhibition. A value of 40 would mean 60% growth inhibition. A value of 0 means no net growth over the course of the experiment. A value of −40 would mean 40% lethality. A value of −100 means all cells are dead. Information from the One-dose mean graph is available for COMPARE analysis.
The human tumor cell lines of the cancer screening panel are grown in RPMI 1640 medium containing 5% fetal bovine serum and 2 mM L-glutamine. For a typical screening experiment, cells are inoculated into 96 well microtiter plates in 100 μL at plating densities ranging from 5,000 to 40,000 cells/well depending on the doubling time of individual cell lines. After cell inoculation, the microtiter plates are incubated at […], 5% CO2, 95% air and 100% relative humidity for 24 h prior to addition of experimental drugs.
After 24 h, two plates of each cell line are fixed in situ with TCA, to represent a measurement of the cell population for each cell line at the time of drug addition (Tz). Experimental drugs are solubilized in dimethyl sulfoxide at 400-fold the desired final maximum test concentration and stored frozen prior to use. At the time of drug addition, an aliquot of frozen concentrate is thawed and diluted to twice the desired final maximum test concentration with complete medium containing 50 µg/ml gentamicin. Additional four, 10-fold or ½ log serial dilutions are made to provide a total of five drug concentrations plus control. Aliquots of 100 μl of these different drug dilutions are added to the appropriate microtiter wells already containing 100 μl of medium, resulting in the required final drug concentrations.
Following drug addition, the plates are incubated for an additional 48 h at 37° C., 5% CO2, 95% air, and 100% relative humidity. For adherent cells, the assay is terminated by the addition of cold TCA. Cells are fixed in situ by the gentle addition of 50 μl of cold 50% (w/v) TCA (final concentration, 10% TCA) and incubated for 60 minutes at 4° C. The supernatant is discarded, and the plates are washed five times with tap water and air dried. Sulforhodamine B (SRB) solution (100 μl) at 0.4% (w/v) in 1% acetic acid is added to each well, and plates are incubated for 10 minutes at room temperature. After staining, unbound dye is removed by washing five times with 1% acetic acid and the plates are air dried. Bound stain is subsequently solubilized with 10 mM trizma base, and the absorbance is read on an automated plate reader at a wavelength of 515 nm. For suspension cells, the methodology is the same except that the assay is terminated by fixing settled cells at the bottom of the wells by gently adding 50 μl of 80% TCA (final concentration, 16% TCA). […]

Cn1nc(C(F)(F)F)cc1-c1ccc(OCc2ccc(Cl)cc2)c(-c2ccc(Cl)c(C(F)(F)F)c2)c1O [NSC: D-804955/1]
Growth Percent (786-0 (Renal Cancer)): 28.42%
Growth Percent (A498 (Renal Cancer)): 5.29%
Growth Percent (A549/ATCC (Non-Small Cell Lung Cancer)): 12.83%
Growth Percent (ACHN (Renal Cancer)): 5.21%
Growth Percent (BT-549 (Breast Cancer)): 39.82%
Growth Percent (CAKI-1 (Renal Cancer)): 19.80%
Growth Percent (CCRF-CEM (Leukemia)): 9.89%
Growth Percent (COLO 205 (Colon Cancer)): 24.55%
Growth Percent (DU-145 (Prostate Cancer)): 19.03%
Growth Percent, Delta (Delta of the mean graph): 35.96%
Growth Percent (EKVX (Non-Small Cell Lung Cancer)): 12.77%
Growth Percent (HCC-2998 (Colon Cancer)): 13.50%
Growth Percent (HCT-15 (Colon Cancer)): 8.53%
Growth Percent (HCT-116 (Colon Cancer)): −0.40%
Growth Percent (HL-60(TB) (Leukemia)): 9.30%
Growth Percent (HOP-62 (Non-Small Cell Lung Cancer)): 50.48%
Growth Percent (HOP-92 (Non-Small Cell Lung Cancer)): −22.43%
Growth Percent (HS 578T (Breast Cancer)): 22.83%
Growth Percent (HT29 (Colon Cancer)): 20.44%
Growth Percent (IGROV1 (Ovarian Cancer)): 38.95%
Growth Percent (KM12 (Colon Cancer)): 8.83%
Growth Percent (LOX IMVI (Melanoma)): 5.24%
Growth Percent (M14 (Melanoma)): 35.38%
Growth Percent (MALME-3M (Melanoma)): 12.24%
Growth Percent (MCF7 (Breast Cancer)): 4.01%
Growth Percent (MDA-MB-231/ATCC (Breast Cancer)): 8.70%
Growth Percent (MDA-MB-435 (Melanoma)): 24.66%
Growth Percent (MDA-MB-468 (Breast Cancer)): −18.75%
Growth Percent (MOLT-4 (Leukemia)): 12.26%
Growth Percent, Mean (Mean over the cell panel): 13.53%
Growth Percent (NCI-H23 (Non-Small Cell Lung Cancer)): −6.46%
Growth Percent (NCI-H322M (Non-Small Cell Lung Cancer)): 18.15%
Growth Percent (NCI-H460 (Non-Small Cell Lung Cancer)): 6.25%
Growth Percent (NCI-H522 (Non-Small Cell Lung Cancer)): −13.66%
Growth Percent (NCI/ADR-RES (Ovarian Cancer)): 8.38%
Growth Percent (OVCAR-3 (Ovarian Cancer)): 1.24%
Growth Percent (OVCAR-4 (Ovarian Cancer)): 30.19%
Growth Percent (OVCAR-5 (Ovarian Cancer)): 53.43%
Growth Percent (OVCAR-8 (Ovarian Cancer)): 7.41%
Growth Percent (PC-3 (Prostate Cancer)): 3.78%
Growth Percent (RPMI-8226 (Leukemia)): −17.88%
Growth Percent, Range (Range over the cell panel): 75.86%
Growth Percent (SF-268 (CNS Cancer)): 26.01%
Growth Percent (SF-295 (CNS Cancer)): 12.82%
Growth Percent (SF-539 (CNS Cancer)): 34.37%
Growth Percent (SK-MEL-2 (Melanoma)): 1.95%
Growth Percent (SK-MEL-28 (Melanoma)): 31.16%
Growth Percent (SK-OV-3 (Ovarian Cancer)): 20.62%
Growth Percent (SN12C (Renal Cancer)): 6.24%
Growth Percent (SNB-19 (CNS Cancer)): 19.21%
Growth Percent (SNB-75 (CNS Cancer)): 47.69%
Growth Percent (SR (Leukemia)): 25.07%
Growth Percent (SW-620 (Colon Cancer)): 13.94%
Growth Percent (T-47D (Breast Cancer)): −0.38%
Growth Percent (TK-10 (Renal Cancer)): 0.36%
Growth Percent (U251 (CNS Cancer)): 0.82%
Growth Percent (UACC-62 (Melanoma)): 19.68%
Growth Percent (UACC-257 (Melanoma)): 2.35%
Growth Percent (UO-31 (Renal Cancer)): −6.34%
